The values below come from PubChem BioAssay (NCI).

The structures appear in SMILES notation. Values joined by “and” are separate entries in the source; they are usually repeats but may differ in a detail not shown here. Identical values can stand only once.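 1) Cells in 96-well plates. 2) Compound, 48 h, 5 concentrations. 3) Linear interpolation between surrounding doses. 4) Unreached endpoint = highest concentration. Abbreviation: GI50, concentration required for 50% inhibition of growth. TGI: concentration producing complete growth inhibition.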

This assay has as its system SN12K1 renal. Put plainly: DTP human tumour cell line panel, 48 h.

For the molecule `Nc1ccn([C@@H]2C=C(CO)[C@@H](O)[C@H]2O)c(=O)n1`, the GI50 is 0.0625 µM; the total growth inhibition concentration (TGI) was 83.8 µM and 160 µM.
